From US20090124555A1, “USE OF HISTOGRANIN AND HISTOGRANIN-LIKE COMPOUNDS AS INHIBITORS OF P2X7 RECEPTOR FUNCTION AND AS ANTI-ARTHRITIC AGENTS” (priority 2005, published 2009)

Legend:
P2X7 receptor [1] = biological target: T1, P2X7 receptor (Rattus norvegicus, UniProt Q64663); assay: ATP-induced membrane permeabilization and pore formation (ethidium bromide uptake) in alveolar macrophages; type: cell-based; conditions: for inhibition of ATP-induced pore formation (ethidium bromide uptake) / ATP-mediated permeabilization to ethidium bromide: ATP 5 mM; for inhibition of ATP-induced pore formation (ethidium bromide uptake): 5 min, compound 10^−9M; for inhibition of ATP-induced pore formation (ethidium bromide uptake) / inhibition of BzATP-induced pore formation: rat alveolar macrophages, FIG. 1A; for inhibition of BzATP-induced pore formation / BzATP-mediated permeabilization to ethidium bromide: BzATP 0.5 mM; for ATP-mediated permeabilization to ethidium bromide / BzATP-mediated permeabilization to ethidium bromide: pre-treatment with oATP 0.1 mM 2 h or BBG 5×10^−9M 5 min
T1 construct: Alveolar macrophages (AM) were recovered from normal rats by bronchoalveolar lavage; endogenous in cells; host or cells: primary alveolar macrophages from male Wistar rats (bronchoalveolar lavage)
T1 sequence (Q64663 1-595): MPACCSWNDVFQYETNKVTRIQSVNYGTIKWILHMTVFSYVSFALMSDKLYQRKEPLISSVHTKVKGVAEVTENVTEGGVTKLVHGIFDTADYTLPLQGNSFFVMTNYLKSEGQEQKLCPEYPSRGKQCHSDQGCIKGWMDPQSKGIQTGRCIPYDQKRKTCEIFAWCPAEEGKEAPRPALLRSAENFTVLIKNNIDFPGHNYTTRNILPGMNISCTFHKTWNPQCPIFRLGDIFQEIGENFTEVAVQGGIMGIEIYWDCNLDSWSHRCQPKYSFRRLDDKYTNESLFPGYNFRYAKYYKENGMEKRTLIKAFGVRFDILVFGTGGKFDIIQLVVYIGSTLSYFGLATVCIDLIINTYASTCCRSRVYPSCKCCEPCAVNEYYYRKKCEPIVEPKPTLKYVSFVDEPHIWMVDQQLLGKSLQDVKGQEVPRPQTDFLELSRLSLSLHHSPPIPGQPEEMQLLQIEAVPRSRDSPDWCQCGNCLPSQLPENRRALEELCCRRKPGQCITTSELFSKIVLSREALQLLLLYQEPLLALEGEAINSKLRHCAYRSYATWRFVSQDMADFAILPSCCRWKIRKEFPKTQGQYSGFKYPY
Protocol: Alveolar macrophages (AM) were recovered from normal rats by bronchoalveolar lavage (BAL) as described previously (Lemaire (1991) Am. J. Pathol. 138:487-495). The lungs were lavaged with 7 ml-aliquots of sterile phosphate buffered saline (pH 7.4; Wisent, St. Bruno, QC), and BAL cells were obtained by centrifugation at 200×g at 4° C. for 5 minutes. The cells were resuspended in RPMI 1640 medium (Wisent, St-Bruno, QC) supplemented with 0.5% dialysed fetal bovine serum (Wisent. St-Bruno, QC), 0.005% gentamycin (Schering Canada Inc. Pointe Claire. QC) and 0.8% HEPES (Sigma Chemical Co., St-Louis, MO) which will henceforth be referred to as complete culture medium (CM).
Freshly isolated AM (1×10^5) were incubated in 200 μl complete medium in 96 wells tissue culture plates for 24 h. Following centrifugation, medium was replaced with saline solution containing 125 mM NaCl, 5 mM KCL, 1 mM MgSO4, 1 mM Na2HPO4, 5.5 mM glucose, 5 mM NaHCO3, 1 mM CaCl2 and 20 mM Hepes, pH 7.6. Ethidium bromide was added to a final concentration of 20 μM and AM were stimulated with ATP (5 mM, Sigma), 3′-O-(4-benzoylbenzoyl ATP (BzATP) (0.5 mM, Molecular Probes) or uridine 5′-triphosphate (UTP) (Sigma), at 37° C. for 5 minutes. In some experiments, cells were pre-treated with oxidized ATP (oATP, 0.1 mM, Sigma) for 2 h or Brilliant Blue G (BBG, 5×10^−9M, Sigma) for 5 minutes, or HN compounds for 5 minutes before ATP stimulation. After ATP stimulation, the plate was centrifuged (200×g, 1 minute), culture supernatants were replaced with fresh buffer and the fluorescence was analyzed using a Zeiss Axiovert S1100 TV inverted microscope equipped with a rhodamine filter and a 32× objective. Images were captured and analysed with the Northern Eclipse image analysis software. Data are expressed as percentage of cells that become permeabilized to ethidium bromide.

P2X7 receptor [2] = biological target: T1, P2X7 receptor; assay: ATP-induced apoptosis, cell death ELISA of cytoplasmic oligonucleosomal DNA; type: cell-based; conditions: ATP 5 mM 30 min, read after 24 h; compound 10^−9M
Protocol: This assay using mouse monoclonal antibodies directed against DNA and histones respectively, allows the quantitative determination of mono- and oligonucleosomes in the cytoplasmic fraction of cell lysates prepared from macrophages (Li et al. (1997) Toxicol. Appl. Pharmacol. 145:331-339). Alveolar macrophages (1×10^5) were incubated in 200 μl complete medium in 96 wells tissue culture plates with ATP (5 mM) in the presence and absence of HN compounds for 30 minutes and media was replaced with fresh culture media. After 24 h, the plate was centrifuged, the culture supernatants removed and macrophages were lysed in lysis buffer for 30 min on ice and centrifuged at 14,000 rpm for 15 min at 4° C. Cytoplasmic oligonucleosomal DNA was measured in cell supernatants by ELISA.

P2X7 receptor [3] = biological target: T1, P2X7 receptor; assay: ATP-induced extracellular release of IL-1.beta and IL-1.alpha from macrophages in vitro (ELISA); type: cell-based
Protocol: Alveolar macrophages (1×10^6 cells/ml) were incubated in complete medium in 96 wells tissue culture plates overnight at 37° C. in 5% CO2. The medium was changed for fresh medium and cells were incubated with Lipopolysaccharide (LPS. 1 μg/ml) (Sigma) for 3 h followed by ATP (5 mM) or 3′-0-(4-benzoylbenzoyl ATP (BZATP) (0.5 mM. Molecular Robes) for 1 h in the presence and absence of HN compounds (10^−9M and 10^−8M) or Brilliant Blue G (BBG, 5×10^−9 M, Sigma). In some experiments, cells were pre-treated with oxidized ATP (oATP, 100 μM, Sigma) for 2 h before LPS and ATP or BzATP stimulation. In other experiments, cells were stimulated with LPS (1 μg/ml) for 3 h and subsequently with Nigericin (20 μM) for 30 min in the presence and absence of HN compounds (10^−9, 10^−8M). Controls were incubated with LPS only. After incubation, cell culture media were collected, centrifuged in a microfuge (Eppendorf) and the cell-free supernatants were collected and stored at −80° C. for cytokine measurement. Levels of immunoreactive IL-1.beta and IL-1.alpha were assayed using ELISA (R&D Systems, Minneapolis, Minn. and Biosource (Medicorp), Camarillo, Calif. respectively) performed according to the manufacturer's protocol.

P2X7 receptor [4] = biological target: T2, P2X7 receptor (Mus musculus, UniProt Q9Z1M0); assay: ATP-induced extracellular release of IL-1.beta, IL-1.alpha and IL-6 in vivo (peritoneal lavage of LPS-primed mice); conditions: 0.1 mg and 0.3 mg i.p. 15 min before ATP, FIG. 6B
T2 construct: from tissue; host or cells: living mice; peritoneal cavity (lavage fluid analysed)
T2 sequence (Q9Z1M0 1-595): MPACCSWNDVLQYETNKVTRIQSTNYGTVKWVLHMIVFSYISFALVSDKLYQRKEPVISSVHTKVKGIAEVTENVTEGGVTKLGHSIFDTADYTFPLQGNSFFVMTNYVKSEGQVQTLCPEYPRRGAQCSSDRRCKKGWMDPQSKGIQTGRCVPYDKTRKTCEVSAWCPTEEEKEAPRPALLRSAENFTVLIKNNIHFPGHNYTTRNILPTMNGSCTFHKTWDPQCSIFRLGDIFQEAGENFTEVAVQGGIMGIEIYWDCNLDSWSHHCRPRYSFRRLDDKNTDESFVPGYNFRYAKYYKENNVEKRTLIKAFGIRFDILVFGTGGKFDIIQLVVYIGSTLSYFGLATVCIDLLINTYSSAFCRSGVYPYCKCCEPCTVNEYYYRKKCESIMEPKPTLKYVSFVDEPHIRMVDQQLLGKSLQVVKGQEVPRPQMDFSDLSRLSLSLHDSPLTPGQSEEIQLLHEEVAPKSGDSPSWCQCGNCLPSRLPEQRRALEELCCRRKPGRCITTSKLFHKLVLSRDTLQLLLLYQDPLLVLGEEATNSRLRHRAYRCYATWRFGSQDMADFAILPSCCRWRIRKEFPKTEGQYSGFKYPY
Protocol: Groups of mice were injected intraperitoneally (i.p.) with 50 μg of LPS. Two hours after this LPS injection, mice were injected i.p. with either PBS or ATP (5 mM, adjusted to pH 7), or with HN compounds (0.1 mg and 0.3 mg) 15 minutes before ATP injection. Mice were sacrificed 30 minutes (IL-1.beta and IL-1.alpha) or 120 minutes (IL-6) after the ATP or PBS injection and peritoneal cavities were lavaged each with 3 ml PBS. Samples of peritoneal lavages were centrifuged, cell-free supernatants were collected and tested for the presence of IL-1.beta, IL-1.alpha and IL-6 using ELISA (R&D Systems, Minneapolis, Minn., and Biosource, Camarillo, Calif., respectively).

N=C(N)NCCC[C@H](C(N)=O)n1c(Cc2ccc(O)cc2)nc2cc(C(=O)O)ccc21 [C-15, N-5-guanidinopentanamide-(2R)-yl 2-(p-hydroxylbenzyl)5-carboxybenzimidazole]
inhibition of ATP-induced pore formation, concentration-response (P2X7 receptor [1]; 10^−12 M to 10^−6 M, dose-dependent manner, FIG. 1B): inhibited | inhibition of ATP-induced pore formation (ethidium bromide uptake) (P2X7 receptor [1]): inhibited significantly | inhibition of BzATP-induced pore formation (P2X7 receptor [1]): inhibit | cytoplasmic oligonucleosomal DNA in response to ATP (P2X7 receptor [2]): inhibited | inhibition of extracellular IL-1.beta release, ATP stimulation (P2X7 receptor [3]; LPS 3 h then ATP 5 mM 1 h, compound 10^−9 M, FIG. 3A): significant inhibition | inhibition of extracellular IL-1.beta release, BzATP stimulation (P2X7 receptor [3]; LPS 3 h then BzATP 0.5 mM 1 h, compound 10^−9 M, FIG. 3A): significant inhibition | IC50 (P2X7 receptor [3]; LPS-primed rat alveolar macrophages, ATP 5 mM, FIG. 3B, read-out: half-maximal response, inhibition of ATP-induced IL-1.beta release): ~0.1 nM | inhibition of ATP-induced IL-1.beta release, concentration-response (P2X7 receptor [3]; inhibition already seen at 10^−12M, FIG. 3B): dose-dependent | IL-1.beta in peritoneal lavage in response to ATP, various HN compounds (P2X7 receptor [4]): reduced levels

H-Val-Val-Tyr-Ala-Leu-Lys-Arg-Gln-Gly-[S-(3nitro-2-pyridine sulfenyl)]Cys-Thr-Leu-Tyr-Gly-Phe- [C-5]
IL-1.beta in peritoneal lavage in response to ATP, various HN compounds (P2X7 receptor [4]): reduced levels

Cyclic (-Gly-(p-chloro)Phe-Tyr-D-Arg-) (GFYR; HELM PEPTIDE1{G.[O=C([C@H](Cc1ccc(Cl)cc1)N[*:1])[*:2]].Y.[dR]}$PEPTIDE1,PEPTIDE1,1:R1-4:R2$$$V2.0; SMILES N=C(N)NCCC[C@H]1NC(=O)[C@H](Cc2ccc(O)cc2)NC(=O)[C@H](Cc2ccc(Cl)cc2)NC(=O)CNC1=O) [C-10]
inhibition of ATP-induced pore formation (ethidium bromide uptake) (P2X7 receptor [1]): inhibited significantly | inhibition of BzATP-induced pore formation (P2X7 receptor [1]): inhibit | IL-1.beta in peritoneal lavage in response to ATP, various HN compounds (P2X7 receptor [4]): reduced levels

H-Gly-Gln-Gly-Arg-Thr-Leu-Tyr-Gly-Phe-COOH (H-GQGRTLYGF-OH) [C-3]
cytoplasmic oligonucleosomal DNA in response to ATP (P2X7 receptor [2]): inhibited

N=C(N)NCCC[C@@H](Nc1ccccc1NC(=O)Cc1ccc(O)cc1)C(N)=O [C-12, N-5-guanidinopentanamide-(2R)-yl-2-N-(p-hydroxphenylacetyl) phenylenediamine]
inhibition of ATP-induced pore formation (ethidium bromide uptake) (P2X7 receptor [1]): inhibited significantly | IL-1.beta in peritoneal lavage in response to ATP, various HN compounds (P2X7 receptor [4]): reduced levels

Cyclic (-Gly-Gln-Tyr-D-Arg-) (GQYR; HELM PEPTIDE1{G.Q.Y.[dR]}$PEPTIDE1,PEPTIDE1,1:R1-4:R2$$$V2.0; SMILES N=C(N)NCCC[C@H]1NC(=O)[C@H](Cc2ccc(O)cc2)NC(=O)[C@H](CCC(N)=O)NC(=O)CNC1=O) [C-7]
inhibition of ATP-induced pore formation (ethidium bromide uptake) (P2X7 receptor [1]): inhibited significantly

CCOc1ccc(Nc2ccc(/C(=C3C=C/C(=[N+](/CC)Cc4cccc(S(=O)(=O)[O-])c4)C=C/3C)c3ccc(N(CC)Cc4cccc(S(=O)(=O)[O-])c4)cc3C)cc2)cc1.[Na+] [Brilliant Blue G, reference compound]
ATP-mediated permeabilization to ethidium bromide (P2X7 receptor [1]): blocked | BzATP-mediated permeabilization to ethidium bromide (P2X7 receptor [1]): blocked | BzATP-induced IL-1.beta release (P2X7 receptor [3]; LPS-primed macrophages, BzATP 0.5 mM, BBG 5×10^−9M, FIG. 3A): significantly reduced

Cyclic (-Gly-D-Gln-Tyr-D-Arg-) (GQYR; HELM PEPTIDE1{G.[dQ].Y.[dR]}$PEPTIDE1,PEPTIDE1,1:R1-4:R2$$$V2.0; SMILES N=C(N)NCCC[C@H]1NC(=O)[C@H](Cc2ccc(O)cc2)NC(=O)[C@@H](CCC(N)=O)NC(=O)CNC1=O) [C-8]
inhibition of ATP-induced pore formation (ethidium bromide uptake) (P2X7 receptor [1]): inhibited significantly

N=C(N)NCCC[C@@H](Nc1ccc(C(=O)c2ccc(Cl)cc2)cc1NC(=O)Cc1ccc(O)cc1)C(N)=O [C-13, N-5-guanidinopentanamide-(2R)-yl-2-N-(p-hydroxyphenylacetyl)-4-(p-chlorobenzoyl)-phenylenediamine]
IL-1.beta in peritoneal lavage in response to ATP, various HN compounds (P2X7 receptor [4]): reduced levels

Nc1ncnc2c1ncn2[C@@H](C=O)O[C@@H](C=O)COP(=O)(O)OP(=O)(O)OP(=O)(O)O [oATP, oxidized ATP, reference compound]
ATP-mediated permeabilization to ethidium bromide (P2X7 receptor [1]): blocked | BzATP-mediated permeabilization to ethidium bromide (P2X7 receptor [1]): blocked | ATP-induced IL-1.beta release (P2X7 receptor [3]; LPS-primed macrophages, ATP 5 mM, oATP 100 μM pre-treatment 2 h, FIG. 3A): significantly reduced
